Assay results published in paper PMC6099706, “Anti-Mycobacterium tuberculosis Activity of Esters of Quinoxaline 1,4-Di-N-Oxide” (Molecules : A Journal of Synthetic Chemistry and Natural …, 2018).
≈ marks a conversion by molar mass, not a printed value.

How the values were obtained:
Assay in all cases: microbe, parasite or virus in culture
Assay type in all cases: cell-based
Conditions in all cases: Mycobacterium tuberculosis
[1] = tested on: M. tb H37Rv SR (streptomycin resistant)
[2] = tested on: M. tb H37Rv IR (isoniazid resistant)
[3] = tested on: M. tb H37Rv RR (rifampicin resistant)
[4] = tested on: M. tb H37Rv ER (ethambutol resistant)

Compound	MIC [1]	MIC [2]	MIC [3]	MIC [4]
CCOC(=O)c1ccc2c(c1)[n+]([O-])c(C(C)=O)c(C(F)(F)F)[n+]2[O-] [Compound T-006]	5 µg/mL (≈ 14.5 µM)	1.25 µg/mL (≈ 3.63 µM)	1.25 µg/mL (≈ 3.63 µM)	1.25 µg/mL (≈ 3.63 µM)
CCOC(=O)c1ccc2c(c1)[n+]([O-])c(C(=O)c1cccs1)c(C(F)(F)F)[n+]2[O-] [Compound T-011]	0.625 µg/mL (≈ 1.52 µM)	< 0.31 µg/mL	< 0.31 µg/mL	< 0.31 µg/mL
COC(=O)c1ccc2c(c1)[n+]([O-])c(C(=O)c1ccccc1)c(C(F)(F)F)[n+]2[O-] [Compound T-018]	1.25 µg/mL (≈ 3.19 µM)	0.62 µg/mL (≈ 1.58 µM)	0.625 µg/mL (≈ 1.59 µM)	0.62 µg/mL (≈ 1.58 µM)
COC(=O)c1ccc2c(c1)[n+]([O-])c(C(=O)OC)c(C)[n+]2[O-] [Compound T-022]	0.625 µg/mL (≈ 2.14 µM)	0.62 µg/mL (≈ 2.12 µM)	< 0.31 µg/mL	0.62 µg/mL (≈ 2.12 µM)
CC(C)OC(=O)c1ccc2c(c1)[n+]([O-])c(C(=O)c1cccs1)c(C(F)(F)F)[n+]2[O-] [Compound T-069]	1.25 µg/mL (≈ 2.93 µM)	0.62 µg/mL (≈ 1.45 µM)	1.25 µg/mL (≈ 2.93 µM)	1.25 µg/mL (≈ 2.93 µM)
CC(C)OC(=O)c1ccc2c(c1)[n+]([O-])c(C(=O)C(C)C)c(C(F)(F)F)[n+]2[O-] [Compound T-085]	1.25 µg/mL (≈ 3.24 µM)	< 0.31 µg/mL	0.625 µg/mL (≈ 1.62 µM)	< 0.31 µg/mL
CCCOC(=O)c1ccc2c(c1)[n+]([O-])c(C(=O)OC)c(C)[n+]2[O-] [Compound T-088]	0.625 µg/mL (≈ 1.95 µM)	0.62 µg/mL (≈ 1.94 µM)	< 0.31 µg/mL	< 0.31 µg/mL
CCCOC(=O)c1ccc2c(c1)[n+]([O-])c(C(=O)c1cccs1)c(C(F)(F)F)[n+]2[O-] [Compound T-089]	1.25 µg/mL (≈ 2.93 µM)	< 0.31 µg/mL	1.25 µg/mL (≈ 2.93 µM)	0.625 µg/mL (≈ 1.47 µM)
CO[C@H]1/C=C/O[C@@]2(C)Oc3c(C)c(O)c4c(O)c(c(/C=N/N5CCN(C)CC5)c(O)c4c3C2=O)NC(=O)/C(C)=C\C=C\[C@H](C)[C@H](O)[C@@H](C)[C@@H](O)[C@@H](C)[C@H](OC(C)=O)[C@@H]1C [RMP, rifampicin, reference compound]	< 0.06 µg/mL	< 0.06 µg/mL	> 2 µg/mL	< 0.06 µg/mL
